Measurements taken from patent US20110275813A1, “Bicylic 1,3-diones and Their Use as Insecticides, Acaricides and/or Fungicides” (Bayer Cropscience AG, priority 2009, published 2011).

Assays:
Assay type in all cases: in vivo
[1] = system: Spodoptera frugiperda; assay: Spodoptera frugiperda test (SPODFR spray application); settings: 168 h, sprayed maize leaf sections, after 7 days
Source text: Spodoptera frugiperda—Test (SPODFR Spray Application)
(§1) Solvent: 78.0 parts by weight acetone • 1.5 parts by weight dimethylformamide
(§2) Emulsifier: 0.5 parts by weight alkylarylpolyglycolether
To produce a suitable preparation of the active compound, 1 part by weight of active compound is mixed with the stated amount of solvent and emulsifier, and the concentrate is dilutes with emulsifier-containing water to the desired concentration. Maize (Zea mais) leaf sections are sprayed with a preparation of the active ingredient of the desired concentration. Once dry, the leaf sections are infested with fall armyworm larvae (Spodoptera frugiperda).
After 7 days mortality in % is determined. 100% means that all caterpillars have been killed and 0% means that none of the caterpillars have been killed.

[2] = system: Sphaerotheca fuliginea; assay: Sphaerotheca test (cucumber)/preventive; settings: preventive, 7 days after inoculation
Method: Sphaerotheca Test (Cucumber)/Preventive
Solvent: 49 parts by weight of N,N-Dimethylformamide
Emulsifier: 1 part by weight of Alkylarylpolyglycolether
To produce a suitable preparation of active compound, 1 part by weight of active compound is mixed with the stated amounts of solvent and emulsifier, and the concentrate is diluted with water to the desired concentration.
To test for preventive activity, young plants are sprayed with the preparation of active compound at the stated rate of application. One day after this treatment, the plants are inoculated with an aqueous spore suspension of Sphaerotheca fuliginea. Then the plants are placed in a greenhouse at approximately 23° C. and a relative atmospheric humidity of approximately 70%.
The test is evaluated 7 days after the inoculation. 0% means an efficacy which corresponds to that of the control, while an efficacy of 100% means that no disease is observed.

[3] = system: Tetranychus urticae; assay: Tetranychus urticae test; OP-resistant (TETRUR spray application); settings: 120 h, spray on infested French beans, after 5 days
Method: Tetranychus urticae—Test; OP-Resistant (TETRUR Spray Application)
as §1, §2
To produce a suitable preparation of active compound, 1 part by weight of active compound is mixed with the stated amount of solvent and emulsifier, and the concentrate is diluted with emulsifier-containing water to the desired concentration. French beans (Phaseolus vulgaris) which are heavily infested with all stages of the two spotted spidermite (Tetranychus urticae), are sprayed with a preparation of the active ingredient at the desired concentration.
After 5 days mortality in % is determined. 100% means that all spider mites have been killed and 0% means that none of the spider mites have been killed.

[4] = system: Phaedon cochleariae; assay: Phaedon cochleariae test (PHAECO spray application); settings: 168 h, sprayed Chinese cabbage leaf-disks, after 7 days
Method: Phaedon cochleariae—Test; (PHAECO Spray Application)
Solvent: 78.0 parts by weight of acetone • • 1.5 parts by weight of dimethylformamide
Emulsifier: 0.5 parts by weight of alkylaryl polyglycolether
To produce a suitable preparation of active compound, 1 part by weight of active compound is mixed with the stated amount of solvent and emulsifier, and the concentrate is diluted with emulsifier-containing water to the desired concentration. Chinese cabbage (Brassica pekinesis) leaf-disks are sprayed with a preparation of the active ingredient of the desired concentration. Once dry, the leaf disks are infested with mustard beetle larvae (Phaedon cochleariae).
After 7 days mortality in % is determined. 100% means that all beetle larvae have been killed and 0% means that none of the beetle larvae have been killed.

[5] = system: Myzus persicae; assay: Myzus persicae test (MYZUPE spray application); settings: 144 h, sprayed Chinese cabbage leaf-disks, after 6 days
Method: Myzus persicae—Test; (MYZUPE Spray Application)
as §1, §2
To produce a suitable preparation of active compound, 1 part by weight of active compound is mixed with the stated amount of solvent and emulsifier, and the concentrate is diluted with emulsifier-containing water to the desired concentration. Chinese cabbage (Brassica pekinesis) leaf-disks infected with all instars of the green peach aphid (Myzus persicae), are sprayed with a preparation of the active ingredient at the desired concentration.
After 6 days mortality in % is determined. 100% means that all aphids have been killed; 0% means that none of the aphids have been killed.

Compound | mortality at 500 g/ha ([1]; 500 g/ha) [%] | Efficacy in % ([2]; 500 ppm) [%] | mortality at 500 g/ha ([3]; 500 g/ha) [%] | mortality at 500 g/ha [4] [%] | mortality at 500 g/ha [5] [%] | mortality at 20 g/ha ([3]; 20 g/ha) [%] | mortality at 100 g/ha ([1]; 100 g/ha) [%] | Efficacy in % ([2]; 250 ppm) [%]
Cc1ccc(-c2ccc(Cl)cc2)cc1C1=C(O)[C@H]2CC[C@H](C2)C1=O [Compound T1] | ≥ 80 | 95 | ≥ 80 | ≥ 80 | ≥ 80 | – | – | –
CC12CCC(C(=O)C(c3cc(-c4ccc(Cl)cc4)ccc3Cl)=C1O)C2(C)C (stereo not drawn) [T 114] | – | 90 | – | – | – | ≥ 80 | – | –
Cc1ccc(-c2ccc(Cl)cc2)cc1C1=C(O)C2(C)CCC(C1=O)C2(C)C (stereo not drawn) [T 115] | – | – | – | – | – | – | ≥ 80 | 80
